Where a name gives a salt, the structure may show the parent alone.
Molecular target: T1, abc isoform of human TMEM16A channel expressed in CHO cells (Homo sapiens, UniProt Q5XXA6, DEL476-501)
T1 construct: expressed in transfected cells; host or cells: CHO cells, doxycycline-inducible expression under Blasticidin/Zeocin selection
T1 sequence (Q5XXA6 with tags, fused parts or gaps isoform Q5XXA6-5 DEL539-564): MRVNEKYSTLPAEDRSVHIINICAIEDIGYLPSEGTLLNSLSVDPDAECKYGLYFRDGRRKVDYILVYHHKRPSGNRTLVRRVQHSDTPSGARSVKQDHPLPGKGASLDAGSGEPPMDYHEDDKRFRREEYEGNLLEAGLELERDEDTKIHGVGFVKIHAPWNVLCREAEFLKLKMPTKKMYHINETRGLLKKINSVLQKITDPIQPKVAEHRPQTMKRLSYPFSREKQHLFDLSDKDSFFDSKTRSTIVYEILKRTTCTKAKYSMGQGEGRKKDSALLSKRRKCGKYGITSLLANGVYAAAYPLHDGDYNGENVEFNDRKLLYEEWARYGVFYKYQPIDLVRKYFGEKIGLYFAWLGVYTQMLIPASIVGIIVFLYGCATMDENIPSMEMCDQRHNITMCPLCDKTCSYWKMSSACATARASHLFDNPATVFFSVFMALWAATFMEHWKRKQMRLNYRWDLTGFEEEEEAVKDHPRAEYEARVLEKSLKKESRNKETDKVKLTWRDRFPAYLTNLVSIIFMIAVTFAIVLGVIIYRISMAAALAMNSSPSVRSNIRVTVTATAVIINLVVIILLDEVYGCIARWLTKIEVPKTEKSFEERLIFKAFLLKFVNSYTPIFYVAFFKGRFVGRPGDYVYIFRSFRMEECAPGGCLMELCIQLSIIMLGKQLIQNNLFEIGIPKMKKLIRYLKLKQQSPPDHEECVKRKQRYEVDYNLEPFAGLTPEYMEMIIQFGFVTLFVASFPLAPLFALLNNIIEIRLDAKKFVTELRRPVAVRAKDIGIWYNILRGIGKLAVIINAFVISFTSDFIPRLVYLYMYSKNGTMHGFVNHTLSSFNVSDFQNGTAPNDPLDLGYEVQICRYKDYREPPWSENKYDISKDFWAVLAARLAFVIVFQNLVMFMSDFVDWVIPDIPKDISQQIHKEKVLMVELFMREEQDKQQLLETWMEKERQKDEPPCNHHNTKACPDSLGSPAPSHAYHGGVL
Experiment: Automated patch clamping (QPatch) assay to measure TMEM16A activity in whole-cell
Assay type: cell-based
Settings: for EC50: CHO cells expressing human TMEM16A (abc), whole-cell automated patch clamp, Hill fit, read-out: TMEM16A QPATCH assay EC50 V3 EC50; for Emax: CHO, maximum current at highest dose relative to reference potentiator at maximal concentration (upper limit) and vehicle (lower limit), read-out: TMEM16A QPATCH assay EC50 V3 Assay Window (% TMEM16A max activation)
Summary of the method: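 CHO cells with doxycycline-induced (1 μg/mL, 18-24 h) human TMEM16A abc isoform; QPatch whole-cell recording, hold −70 mV, step +70 mV 1500 ms, then −90 to +70 mV ramp. Compounds in 0.3% DMSO; EC50 by Hill fit; % max activation relative to vehicle baseline and reference potentiator maximum.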

Row | Compound | EC50 | Emax
1 | CCC(CC)NC(=O)c1cnc(-c2cccc(-c3cc(C(=O)NCC4CC4)n[nH]3)c2)o1 [Example 3.32, 2-(3-(3-((Cyclopropylmethyl)Carbamoyl)-1 H-Pyrazol-5-Yl)Phenyl)-N-(Pentan-3-Yl)Oxazole-5-Carboxamide] | 110 nM | 55%
2 | CCC(CC)NC(=O)c1cnc(-c2cccc(-c3cc(C(=O)N4CCCCC4)n[nH]3)c2)o1 [Example 3.33, N-(Pentan-3-Yl)-2-(3-(3-(Piperidine-1-Carbonyl)-1H-Pyrazol-5-Yl)Phenyl)Oxazole-5-Carboxamide] | 840 nM | 61%
3 | CCC(CC)NC(=O)c1cnc(-c2cccc(-c3cc(C(=O)NCc4c(F)cccc4F)n[nH]3)c2)o1 [Example 3.34, 2-(3-(3-((2,6-Difluorobenzyl)Carbamoyl)-1 H-Pyrazol-5-Yl)Phenyl)-N-(Pentan-3-Yl)Oxazole-5-Carboxamide] | 220 nM | 77%
4 | CCC(CC)NC(=O)c1cnc(-c2cccc(-c3cc(C(=O)N[C@@H](C)c4ccccc4)n[nH]3)c2)o1 [Example 3.38, (S)-N-(Pentan-3-Yl)-2-(3-(3-((1-Phenylethyl)Carbamoyl)-1H-Pyrazol-5-yl)Phenyl)Oxazole-5-Carboxamide] | 150 nM | 100%
5 | CCC(CC)NC(=O)c1cnc(-c2cccc(-c3cc(C(=O)NC(C)(C)CCc4ccccc4)n[nH]3)c2)o1 [Example 3.39, 2-(3-(3-((2-Methyl-4-Phenylbutan-2-Yl)Carbamoyl)-1H-Pyrazol-5-yl)Phenyl)-N-(Pentan-3-Yl)Oxazole-5-Carboxamide] | 150 nM | 98%
6 | CCC(CC)NC(=O)c1cnc(-c2cccc(-c3cc(C(=O)NC4CCCCC4)n[nH]3)c2)o1 [Example 3.40, 2-(3-(3-(Cyclohexylcarbamoyl)-1 H-Pyrazol-5-Yl)Phenyl)-N-(Pentan-3-yl)Oxazole-5-Carboxamide] | 70 nM | 96%
7 | CCC(CC)NC(=O)c1cnc(-c2cccc(-c3cc(C(=O)NC(C)(C)C)n[nH]3)c2)o1 [Example 3.43, 2-(3-(3-(Tert-Butylcarbamoyl)-1 H-Pyrazol-5-Yl)Phenyl)-N-(Pentan-3-yl)Oxazole-5-Carboxamide] | 130 nM | 84%

Results, then the compound that gave them:

Row | EC50 | Emax | Compound
8 | 120 nM | 69% | CCC(CC)NC(=O)c1cnc(-c2cccc(-c3cc(C(=O)N[C@@H](C)C(C)(C)C)n[nH]3)c2)o1 [Example 3.35, (S)-2-(3-(3-((3,3-Dimethylbutan-2-Yl)Carbamoyl)-1H-Pyrazol-5-Yl)Phenyl)-N-(Pentan-3-Yl)Oxazole-5-Carboxamide Trifluoroacetate]
9 | 190 nM | 97% | CCC(CC)NC(=O)c1cnc(-c2cccc(-c3cc(C(=O)NC(COC)C(C)C)n[nH]3)c2)o1 (stereo not drawn) [Example 3.36, 2-(3-(3-((1-Methoxy-3-Methylbutan-2-Yl)Carbamoyl)-1H-Pyrazol-5-Yl)Phenyl)-N-(Pentan-3-Yl)Oxazole-5-Carboxamide]
10 | 200 nM | 109% | CCC(CC)NC(=O)c1cnc(-c2cccc(-c3cc(C(=O)N[C@H](C)C(C)C)n[nH]3)c2)o1 [Example 3.37, (R)-2-(3-(3-((3-Methylbutan-2-Yl)Carbamoyl)-1H-Pyrazol-5-Yl)Phenyl)-N-(Pentan-3-Yl)Oxazole-5-Carboxamide]
11 | 130 nM | 89% | CCC(CC)NC(=O)c1cnc(-c2cccc(-c3cc(C(=O)N[C@H](C(=O)OC)C(C)C)n[nH]3)c2)o1 [Example 3.41, (S)-Methyl 3-Methyl-2-(5-(3-(5-(Pentan-3-Ylcarbamoyl)Oxazol-2-Yl)Phenyl)-1H-Pyrazole-3-Carboxamido)Butanoate]
12 | 690 nM | 86% | CCC(CC)NC(=O)c1cnc(-c2cccc(-c3cc(C(=O)N[C@@H](C)C(=O)OC)n[nH]3)c2)o1 [Example 3.42, (S)-Methyl 2-(5-(3-(5-(Pentan-3-Ylcarbamoyl)Oxazol-2-Yl)Phenyl)-1H-Pyrazole-3-Carboxamido)Propanoate]

From US20220306617A1, “SUBSTITUTED 1,3-PHENYL HETEROARYL DERIVATIVES AND THEIR USE IN THE TREATMENT OF DISEASE” (NOVARTIS AG, priority 2019, published 2022)
